The target in this assay is T1, IRAK4 (Homo sapiens, UniProt Q9NWZ3).
T1 sequence (Q9NWZ3 1-460): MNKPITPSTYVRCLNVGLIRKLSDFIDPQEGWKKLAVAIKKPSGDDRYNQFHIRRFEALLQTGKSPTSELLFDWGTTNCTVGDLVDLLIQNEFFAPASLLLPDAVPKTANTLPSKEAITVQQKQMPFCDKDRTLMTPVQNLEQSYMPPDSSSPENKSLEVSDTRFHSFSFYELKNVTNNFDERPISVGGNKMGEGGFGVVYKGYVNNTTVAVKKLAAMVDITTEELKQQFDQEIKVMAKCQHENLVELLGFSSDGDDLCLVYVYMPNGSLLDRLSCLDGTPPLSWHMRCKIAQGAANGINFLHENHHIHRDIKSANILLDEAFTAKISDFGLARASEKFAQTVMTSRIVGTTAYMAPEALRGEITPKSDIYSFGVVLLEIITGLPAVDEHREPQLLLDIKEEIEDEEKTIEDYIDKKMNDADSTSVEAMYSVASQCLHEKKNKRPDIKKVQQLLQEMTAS
As to the kind of experiment: Hibit fluorescence detection of proteolysis (IRAK4-HiBiT in HEK293T cells). It counts as cell-based. The arrangement: host or cells: HEK293T (ATCC). The settings on record: for Dmax: HEK-293T; for DC50: IRAK4-HiBiT, HEK293T cells, 24 h. The procedure: Utilizing HiBiT tag technology, the HiBiT tag-containing sequence (Seq. ID. No. 1, Beijing Tsingke Biotech Co., Ltd.) was connected to the IRAK4 plasmid (Seq. ID. No. 2, Beijing Tsingke Biotech Co., Ltd.), and the plasmid was transfected into HEK293T cells (ATCC). […] The 6-well plate that was incubated overnight was taken out. After the plate was left at room temperature for 15 min, the obtained mixture was added dropwise to the 6-well plate. […] Culture was performed at 37°C and 5% CO2 for 24 h. The 384-well plate was taken out and equilibrated to room temperature. 40 µL of Nano-Glo® HiBiT Lytic Detection System (Promega N3030) was added to each well and incubated at room temperature for 15 min. […] Prism 9.3 software was used to perform fitting analysis for data, and non-linear fitting (non-liner inhibitor (Bell-shaped)) and four parameters (4 parameter) were used, and the parameters was as follows: Span1 = Plateau1−Dip [formula] Span2 = Plateau2−Dip [formula] Section1 = Span1/(1+10^(∧)((LogEC50_1−X)*nH1)) [formula] Section2 = Span2/(1+10^(∧)((X−LogEC50_2)*nH2)) [formula]
The equation was as follows: Y=Dip+Section1+Section2. • Seq. ID. No. 1 ([…]), other DNA, synthetic construct, sequence length 33; • Seq. ID. No. 2 [formula]
In general terms: With HiBiT, luminescence reflects the tagged protein that the partner subunit can reach.

Structures are written as SMILES. Where two headings read alike, the source gives them in different places.

Take `Cn1c(=O)n(C2CCC(=O)NC2=O)c2cccc(NCCC3CC4(C3)CN(C[C@H]3CC[C@H](n5cc(-n6cc(-c7cnn8ccc(N9CCOCC9)nc78)nn6)c(C(F)F)n5)CC3)C4)c21` (some centres unmarked) [Example 26, 3-(4-((2-(2-(((1r,4r)-4-(3-(difluoromethyl)-4-(4-(5-morpholinopyrazolo[1,5-a]pyrimidin-3-yl)-1H-1,2,3-triazol-1-yl)-1H-pyrazol-1-yl)cyclohexyl)methyl)-2-azaspiro[3.3]heptan-6-yl)ehtyl)amino)-3-methyl-2-oxo-2,3-dihydro-1H-benzo[d]imidazol-1-yl)piperidine-2,6-dione]: the Dmax lay within 70 to 80% and the DC50 is less than 0.5 nM.
`CN1CCN(c2ccn3ncc(-c4cn(-c5cn([C@H]6CC[C@H](CN7CCN(C8CCN(c9cccc%10c9n(C)c(=O)n%10C9CCC(=O)NC9=O)CC8)CC7)CC6)nc5C(F)F)nn4)c3n2)CC1` (some centres unmarked) [Compound 231] registered a Dmax of 70 to 80%. The DC50 (read-out: DC50) fell in the range of 0.5 to 1 nM.
`CN(Cc1cccc2c1n(C)c(=O)n2C1CCC(=O)NC1=O)CC1CCN(C[C@H]2CC[C@H](n3cc(-n4cc(-c5cnn6ccc(N7CCOCC7)nc56)nn4)c(C(F)F)n3)CC2)CC1` (some centres unmarked) [Example 3, 3-(4-((((1-(((1r,4r)-4-(3-(difluoromethyl)-4-(4-(5-morpholinopyrazolo[1,5-a]pyrimidin-3-yl)-1H-1,2,3-triazol-1-yl)-1H-pyrazol-1-yl)cyclohexyl)methyl)piperidin-4-yl)methyl)(methyl)amino)methyl)-3-methyl-2-oxo-2,3-dihydro-1H-benzo[d]imidazol-1-yl)piperidine-2,6-dione] registered a Dmax of 60 to 70% and a DC50 of less than 0.5 nM.
For `Cn1c(=O)n(C2CCC(=O)NC2=O)c2cccc(N3CCC4(CCN(C[C@H]5CC[C@H](n6cc(-n7cc(-c8cnn9ccc(NCCC(C)(C)O)nc89)nn7)c(C(F)F)n6)CC5)C4)CC3)c21` (some centres unmarked) [Example 134] the same measures were more than 80% and less than 0.5 nM.
For `Cn1c(=O)n(C2CCC(=O)NC2=O)c2cccc(N3CCN(C[C@H]4CC[C@H](n5cc(-n6cc(-c7ccc8cc(C(N)=O)cnn78)nn6)c(C(F)F)n5)CC4)CC3)c21` (some centres unmarked) [Example 57] the same measures were 70 to 80% and less than 0.5 nM.
With `Cn1c(=O)n(C2CCC(=O)NC2=O)c2cccc(N3CCN(C[C@H]4CC[C@H](n5cc(-n6cc(-c7cnn8ccc(NCCC(C)(C)O)nc78)nn6)c(C(F)F)n5)CC4)CC3)c21` (some centres unmarked) [Compound 239], the Dmax was more than 80%. In addition, the DC50 (read-out: DC50) is less than 0.5 nM.
Take `Cn1c(=O)n(C2CCC(=O)NC2=O)c2cccc(N3CCC4(CC3)CN(C[C@H]3CC[C@H](n5cc(-n6cc(-c7cnn8ccc(N9CCOCC9)nc78)nn6)c(C(F)F)n5)CC3)C4)c21` (some centres unmarked) [Example 47]: the Dmax is 70 to 80% and the DC50 is less than 0.5 nM.
The compound `Cn1c(=O)n(C2CCC(=O)NC2=O)c2cccc(N3CCC4(CCN(C[C@H]5CC[C@H](n6cc(-n7cc(-c8cnn9ccc(N%10CCC[C@H](O)C%10)nc89)nn7)c(C(F)F)n6)CC5)CC4)C3)c21` (some centres unmarked) [Example 143] showed a Dmax of more than 80% and a DC50 of less than 0.5 nM.
For `Cn1c(=O)n(C2CCC(=O)NC2=O)c2cccc(CN3CC4(C3)CN(C[C@H]3CC[C@H](n5cc(-n6cc(-c7cnn8ccc(N9CCOCC9)nc78)nn6)c(C(F)F)n5)CC3)C4)c21` (some centres unmarked) [Example 12, 3-(4-((6-(((1r,4r)-4-(3-(difluoromethyl)-4-(4-(5-morpholinopyrazolo[1,5-a]pyrimidin-3-yl)-1H -1,2,3-triazol-1-yl)-1H-pyrazol-1-yl)cyclohexyl)methyl)-2,6-diazaspiro[3.3]hept-2-yl)methyl)-3-methyl-2-oxo-2,3-dihydro-1H-benzo[d]imidazol-1-yl)piperidine-2,6-dione] the same measures were 70 to 80% and less than 0.5 nM.
`Cn1c(=O)n(C2CCC(=O)NC2=O)c2cccc(N3CCC(N4CCN(C[C@H]5CC[C@H](n6cc(-n7cc(-c8cnn9ccc(NCC%10CC%10)nc89)nn7)c(C(F)F)n6)CC5)CC4)CC3)c21` (some centres unmarked) [Example 114] registered a Dmax of more than 80% and a DC50 of less than 0.5 nM.
For `Cn1c(=O)n(C2CCC(=O)NC2=O)c2cccc(N3CC(CN4CCC(n5cc(-n6cc(-c7ccc8cc(C(N)=O)cnn78)nn6)c(C(F)F)n5)CC4)C3)c21` (centres unmarked) [Example 73, 7-(1-(3-(difluoromethyl)-1-(1-((1-(1-(2,6-dioxopiperidin-3-yl)-3-methyl-2-oxo-2,3-dihydro-1H-benzo[d]imidazol-4-yl)azetidin-3-yl)methyl)piperidin-4-yl)-1H-pyrazol-4-yl)-1H-1,2,3-triazol-4-yl) pyrrolo[1,2-b]pyridazine-3-carboxamide] the same measures were less than 60% and less than 0.5 nM.
Compound `Cn1c(=O)n(C2CCC(=O)NC2=O)c2cccc(N3CCC(N4CCN(C[C@H]5CC[C@H](n6cc(-n7cc(-c8cnn9ccc(N%10CC%11(COC%11)C%10)nc89)nn7)c(C(F)F)n6)CC5)CC4)CC3)c21` (some centres unmarked) [Compound 224] displayed a Dmax of more than 80%. The DC50 (read-out: DC50) was less than 0.5 nM.
Compound `Cn1c(=O)n(C2CCC(=O)NC2=O)c2cccc(NC(=O)N3CCC4(CCN(C[C@H]5CC[C@H](n6cc(-n7cc(-c8cnn9ccc(N%10CCOCC%10)nc89)nn7)c(C(F)F)n6)CC5)C4)CC3)c21` (some centres unmarked) [Example 18, 2-(((1r,4r)-4-(3-(difluoromethyl)-4-(4-(5-morpholinopyrazolo [1,5-a]pyrimidin-3-yl)-1H-1,2,3-triazol-1-yl)-1H-pyrazol-1-yl)cyclohexyl)methyl)-N-(1-(2,6-dioxopiperidin-3-yl)-3-methyl-2-oxo-2,3-dihydro-1H-benzo[d]imidazol-4-yl)-2,8-diazaspiro[4.5]decan-8-carboxamide] came in with a Dmax of more than 80%. The DC50 (read-out: DC50) is more than 5 nM.
For `Cn1c(=O)n(C2CCC(=O)NC2=O)c2cccc(N3CCN(C[C@H]4CC[C@H](n5cc(-n6cc(-c7cnn8ccc(NCC9CC9)nc78)nn6)c(C(F)F)n5)CC4)CC3)c21` (some centres unmarked) [Compound 225] the same measures were 70 to 80% and less than 0.5 nM.
`Cn1c(=O)n(C2CCC(=O)NC2=O)c2cccc(N3CCN(C4CCN(C[C@H]5CC[C@H](n6cc(-n7cc(-c8ccc9cc(C(N)=O)cnn89)nn7)c(C(F)F)n6)CC5)CC4)CC3)c21` (some centres unmarked) [Example 71] showed a Dmax of more than 80% and a DC50 of less than 0.5 nM.
For `Cn1c(=O)n(C2CCC(=O)NC2=O)c2cccc(NC(=O)N3CCC4(CCN(C[C@H]5CC[C@H](n6cc(-n7cc(-c8ccc9cc(C(N)=O)cnn89)nn7)c(C(F)F)n6)CC5)C4)CC3)c21` (some centres unmarked) [Example 90, 2-(((1r,4r)-4-(4-(4-(3-carbamoylpyrrolo[1,2-b]pyridazin-7-yl)-1H-1,2,3-triazol-1-yl) -3-(difluoromethyl)-1H-pyrazol-1-yl)cyclohexyl)methyl)-N-(1-(2,6-dioxopiperidin-3-yl)-3-methyl-2-oxo-2,3-dihydro-1H-benzo[d]imidazol-4-yl)-2,8-diazaspiro[4.5]decan-8-carboxamide] the same measures were 70 to 80% and more than 5 nM.
For `Cn1c(=O)n(C2CCC(=O)NC2=O)c2cccc(NC[C@H]3CC[C@H](N(C)C[C@H]4CC[C@H](n5cc(-n6cc(-c7cnn8ccc(N9CCOCC9)nc78)nn6)c(C(F)F)n5)CC4)CC3)c21` (stereo partly drawn) [Example 24, 3-(4-((((1R,4r)-4-((((1r,4R)-4-(3-(difluoromethyl)-4-(4-(5-morpholinopyrazolo[1,5-a]pyrimidin-3-yl)-1H-1,2,3-triazol-1-yl)-1H-pyrazol-1-yl)cyclohexyl)methyl)(methyl)amino)cyclohexyl)methyl)amino)-3-methyl-2-oxo-2,3-dihydro-1H-benzo[d]imidazol-1-yl)piperidine-2,6-dione] the same measures were less than 60% and less than 0.5 nM.
For `Cn1c(=O)n(C2CCC(=O)NC2=O)c2cccc(C#CC3(O)CN(C[C@H]4CC[C@H](n5cc(-n6cc(-c7ccc8cc(C(N)=O)cnn78)nn6)c(C(F)F)n5)CC4)C3)c21` (some centres unmarked) [Example 19] the same measures were 70 to 80% and 0.5 to 1 nM.
As for `Cn1c(=O)n(C2CCC(=O)NC2=O)c2cccc(N3CC4CCC(C3)N4C[C@H]3CC[C@H](n4cc(-n5cc(-c6cnn7ccc(N8CCOCC8)nc67)nn5)c(C(F)F)n4)CC3)c21` (stereo partly drawn) [Example 49, 3-(4-((1R,4R)-4-(3-(difluoromethyl)-4-(4-(5-morpholinopyrazolo[[1,5-a]pyrimidin-3-yl)-1H-1,2,3-triazol-1-yl)-1H-pyrazol-1-yl)cyclohexyl)-3,8-diazabicyclo[3.2.1]oct-3-yl)-3-methyl-2-oxo-2,3-dihydro-1H-benzo[d]imidazol-1-yl)piperidine-2,6-dione], the Dmax fell in the range of 70 to 80% and the DC50 was in the range of 1 to 5 nM.

Source of the values: patent EP4759807A1, “PROTEOLYSIS TARGETING CHIMERA COMPOUND FOR DEGRADING IRAK4 AND USE THEREOF” (Shenzhen Zhongge Biological Technology Co., Ltd., priority 2023, dated 2025).
